Publication PMC11593696, “Discovery of Potent Benzothiazole Inhibitors of Oxidoreductase NQO2, a Target for Inflammation and Cancer” (International Journal of Molecular Sciences, 2024)
Like-named read-outs stand apart in the source and are kept apart here.

Legend:
recombinant human NQO2 = biological target: T1, recombinant human NQO2 (Homo sapiens, UniProt P16083); test: NQO2 enzyme inhibition assay (DCPIP substrate, NRH or EPR co-substrate); assay type: biochemical; details: for reduction in potency relative to compound 40: removal of the 4-OMe or the 5-OMe from 40
T1 sequence (P16083 1-231): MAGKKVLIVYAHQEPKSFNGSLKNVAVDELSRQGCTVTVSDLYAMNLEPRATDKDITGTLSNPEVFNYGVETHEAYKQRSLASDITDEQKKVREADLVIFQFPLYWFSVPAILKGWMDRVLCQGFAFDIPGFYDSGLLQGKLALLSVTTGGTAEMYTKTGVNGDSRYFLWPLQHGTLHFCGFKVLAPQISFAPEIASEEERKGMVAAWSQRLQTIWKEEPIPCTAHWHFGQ
Procedure: In this assay, dichlorophenolindophenol (DCPIP) was used as a substrate for NQO2. NRH (SI or EP0152R) was used as the co-substrate for the enzyme.
The NQO2 enzyme assay was carried out using a […] GO spectrophotometer by measuring the absorbance of DCPIP at 600 nm. NRH [31] or EPR were used as co-substrates. The experiment was performed using a 96-well plate with a […] final volume using phosphate buffer (50 mM, pH 7.4). The final concentrations were DCPIP 40 µM and NRH or EPR 200 µM. The final enzyme concentration was 100 ng. The assay was performed at 37 °C and initiated through the addition of NQO2. The initial rates of the enzyme reactions were calculated from the curve by taking the initial slopes of the reactions using the formula (ΔAb/ΔTime). The assay of inhibitors was carried out using the same assay conditions. […] Each experiment was performed in triplicate. Rates were converted to the percentage of enzyme activity, and IC50 values were calculated using GraphPad Prism 7.03 software using the non-linear regression function. IC50 values were determined as a 50% decrease in NQO2 activity.

[1] = inhibition of NQO2, DCPIP 40 µM, NRH or EPR 200 µM, phosphate buffer pH 7.4, 37 °C, triplicate, read-out: IC50 (µM) ± SD
[2] = DCPIP substrate, NRH co-substrate, read-out: IC50 for inhibition of NQO2

| SMILES | melting point [°C] | IC50 (recombinant human NQO2; [1]) [µM] | IC50 (recombinant human NQO2; [2]) [µM] | reduction in potency relative to compound 40 (recombinant human NQO2) [fold] | inhibition of NQO2 enzymatic activity, in words (recombinant human NQO2) |
| --- | --- | --- | --- | --- | --- |
| COc1ccc2nc(-c3ccc(OC)c(OC)c3)sc2c1 [Compound 32, 2-(3,4-Dimethoxyphenyl)-6-methoxybenzo[d]thiazole] |  | 1.27 ± 0.03 | 1.27 | 20 |  |
| COc1ccc2nc(-c3cc(F)cc(F)c3)sc2c1 [Compound 57, 2-(3,5-Difluorophenyl)-6-methoxybenzo[d]thiazole] |  | 11.78 ± 0.02 | 12 |  |  |
| COc1ccc(-c2nc3ccc(Br)cc3s2)c(OC)c1 [Compound 17, 6-Bromo-2-(2,4-dimethoxyphenyl)benzo[d]thiazole] | 148 to 149 | 56.9 ± 0.02 | 56.9 |  |  |
| COc1ccc(-c2nc3ccc(OC)cc3s2)c(OC)c1 [Compound 16, 2-(2,4-Dimethoxyphenyl)-6-methoxybenzo[d]thiazole] | 150 to 151 | 5.86 ± 0.07 |  |  |  |
| COc1cc(OC)cc(-c2nc3ccc(C(F)(F)F)cc3s2)c1 [Compound 5, 2-(3,5-Dimethoxyphenyl)-6-(trifluoromethyl)benzo[d]thiazole] |  | 0.123 ± 0.029 | 0.123 |  |  |
| COc1cc(-c2nc3ccc([N+](=O)[O-])cc3s2)cc(OC)c1OC [Compound 47, 6-Nitro-2-(3,4,5-trimethoxyphenyl)benzo[d]thiazole] | 200 to 201 | 0.754 ± 0.008 |  |  |  |
| COc1cc(OC)cc(-c2nc3ccc(F)cc3s2)c1 [Compound 8, 2-(3,5-Dimethoxyphenyl)-6-fluorobenzo[d]thiazole] | 138 to 140 | > 100 |  |  |  |
| COc1ccc(-c2nc3ccc(C(F)(F)F)cc3s2)cc1OC [Compound 34, 2-(3,4-Dimethoxyphenyl)-6-(trifluoromethyl)benzo[d]thiazole] |  | > 100 |  |  |  |
| Fc1cccc(-c2nc3ccc(F)cc3s2)c1 [Compound 55, 6-Fluoro-2-(3-fluorophenyl)benzo[d]thiazole] | 111 to 112 | 52.55 ± 0.06 | 52.6 |  |  |
| COc1ccc(-c2nc3ccc(Br)cc3s2)cc1OC [Compound 33, 6-Bromo-2-(3,4-dimethoxyphenyl)benzo[d]thiazole] | 165 to 168 | 9.09 ± 0.04 | 9.09 |  |  |
| COc1ccc(-c2nc3ccc(C#N)cc3s2)c(OC)c1 [Compound 20, 2-(2,4-Dimethoxyphenyl)benzo[d]thiazole-6-carbonitrile] | 235 to 237 | > 100 |  |  |  |
| COc1ccc(-c2nc3ccc(F)cc3s2)c(OC)c1 [Compound 21, 2-(2,4-Dimethoxyphenyl)-6-fluorobenzo[d]thiazole] | 157 to 158 | 3.51 ± 0.08 |  |  |  |
| COc1ccc2nc(-c3cc(OC)c(OC)c(OC)c3)sc2c1 [Compound 40, 6-Methoxy-2-(3,4,5-trimethoxyphenyl)benzo[d]thiazole] |  | 0.051 ± 0.02 | 0.051 |  |  |
| COc1cc(-c2nc3ccc(C(F)(F)F)cc3s2)cc(OC)c1OC [Compound 42, 6-(Trifluoromethyl)-2-(3,4,5-trimethoxyphenyl)benzo[d]thiazole] |  | 18.36 ± 0.03 | 18.4 |  |  |
| COc1ccc(OC)c(-c2nc3ccc(C(F)(F)F)cc3s2)c1 [Compound 26, 2-(2,5-Dimethoxyphenyl)-6-(trifluoromethyl)benzo[d]thiazole] |  | 2.77 ± 0.01 | 2.77 |  |  |
| Fc1ccc(-c2nc3ccc(F)cc3s2)cc1 [Compound 56, 6-Fluoro-2-(4-fluorophenyl)benzo[d]thiazole] |  | > 100 | > 100 |  |  |

Now from value to compound:

| melting point [°C] | IC50 (recombinant human NQO2; [1]) [µM] | IC50 (recombinant human NQO2; [2]) [µM] | reduction in potency relative to compound 40 (recombinant human NQO2) [fold] | inhibition of NQO2 enzymatic activity, in words (recombinant human NQO2) | SMILES |
| --- | --- | --- | --- | --- | --- |
| 150 to 151 | 82.93 ± 0.04 |  |  |  | COc1cc(OC)cc(-c2nc3ccc(Cl)cc3s2)c1 [Compound 6, 6-Chloro-2-(3,5-dimethoxyphenyl)benzo[d]thiazole] |
| 205 to 207 | 3.17 ± 0.031 | 3.17 |  |  | COc1cc(-c2nc3ccc(NC(=O)c4ccccc4)cc3s2)cc(OC)c1OC [Compound 50, N-(2-(3,4,5-Trimethoxyphenyl)benzo[d]thiazol-6-yl)benzamide] |
| 138 to 140 | 8.44 ± 0.03 |  |  | further loss of activity | COc1cc(OC)cc(-c2nc3ccc(NC(=O)c4ccccc4)cc3s2)c1 [Compound 13, N-(2-(3,5-Dimethoxyphenyl)benzo[d]thiazol-6-yl)benzamide] |
| 220 to 222 | 1.18 ± 0.002 | 1.18 |  |  | COc1ccc(OC)c(-c2nc3ccc(Cl)cc3s2)c1 [Compound 27, 6-Chloro-2-(2,5-dimethoxyphenyl)benzo[d]thiazole] |
|  | 91.67 ± 0.08 | 91.7 |  |  | COc1ccc(-c2nc3ccc(Cl)cc3s2)cc1OC [Compound 35, 6-Chloro-2-(3,4-dimethoxyphenyl)benzo[d]thiazole] |
|  | > 100 |  |  |  | COc1ccc(-c2nc3ccc(C#N)cc3s2)cc1OC [Compound 36, 2-(3,4-Dimethoxyphenyl)benzo[d]thiazole-6-carbonitrile] |
|  | 0.863 ± 0.07 | 0.863 |  |  | COc1cc(OC)cc(-c2nc3ccc(N)cc3s2)c1 [Compound 11, 2-(3,5-Dimethoxyphenyl)benzo[d]thiazol-6-amine] |
|  | 0.025 ± 0.003 | 0.025 |  |  | Oc1cc(O)cc(-c2nc3ccc(O)cc3s2)c1 [Compound 15, 6-Hydroxy-2-(3,5-dihydroxyphenyl)benzo[d]thiazole] |
| 182 to 184 | > 100 |  |  |  | COc1ccc(OC)c(-c2nc3ccc(C#N)cc3s2)c1 [Compound 28, 2-(2,5-Dimethoxyphenyl)benzo[d]thiazole-6-carbonitrile] |
| 135 to 137 | 6.71 ± 0.02 |  |  |  | COc1ccc(OC)c(-c2nc3ccc(Br)cc3s2)c1 [Compound 25, 6-Bromo-2-(2,5-dimethoxyphenyl)benzo[d]thiazole] |
| 208 to 209 | 0.031 ± 0.008 | 0.031 |  |  | COc1cc(-c2nc3ccc(NC(C)=O)cc3s2)cc(OC)c1OC [Compound 49, N-(2-(3,4,5-Trimethoxyphenyl)benzo[d]thiazol-6-yl)acetamide] |
| 221 to 222 | 63.28 ± 0.02 |  |  |  | COc1ccc(-c2nc3ccc([N+](=O)[O-])cc3s2)cc1OC [Compound 39, 2-(3,4-Dimethoxyphenyl)-6-nitrobenzo[d]thiazole] |
| 105 to 107 | 2.06 ± 0.01 | 2.06 |  |  | COc1ccc(OC)c(-c2nc3ccc(F)cc3s2)c1 [Compound 29, 2-(2,5-Dimethoxyphenyl)-6-fluorobenzo[d]thiazole] |
| 185 to 187 | 3.11 ± 0.03 |  |  |  | COc1cc(OC)cc(C(=O)Nc2ccc3nc(-c4cc(OC)c(OC)c(OC)c4)sc3c2)c1 [Compound 51, 3,5-Dimethoxy-N-(2-(3,4,5-trimethoxyphenyl)benzo[d]thiazol-6-yl)benzamide] |
| 212 to 215 | 0.079 ± 0.017 | 0.079 |  |  | COc1cc(-c2nc3ccc(N)cc3s2)cc(OC)c1OC [Compound 48, 2-(3,4,5-Trimethoxyphenyl)benzo[d]thiazol-6-amine] |
| 103 to 105 | 0.908 ± 0.02 | 0.908 |  |  | COc1cccc(-c2nc3ccc(F)cc3s2)c1 [Compound 53, 6-Fluoro-2-(3-methoxyphenyl)benzo[d]thiazole] |
| 240 to 242 | 0.2 ± 0.01 |  |  |  | Oc1ccc2nc(-c3cc(O)c(O)c(O)c3)sc2c1 [Compound 52, 6-Hydroxy-2-(3,4,5-trihydroxyphenyl)benzo[d]thiazole] |
| 121 to 123 | 0.108 ± 0.012 | 0.108 | 2 |  | COc1cc(OC)cc(-c2nc3ccc(OC)cc3s2)c1 [Compound 3, 2-(3,5-Dimethoxyphenyl)-6-methoxybenzo[d]thiazole] |
|  | > 100 |  |  | loss of inhibition of NQO2 activity | Fc1cc(F)cc(-c2nc3ccc(F)cc3s2)c1 [Compound 58, 2-(3,5-Difluorophenyl)-6-fluorobenzo[d]thiazole] |
|  | 0.106 ± 0.004 |  |  |  | COc1cc(-c2nc3ccc(I)cc3s2)cc(OC)c1OC [Compound 46, 6-Iodo-2-(3,4,5-trimethoxyphenyl)benzo[d]thiazole] |
|  | 0.846 ± 0.02 | 0.846 |  |  | COc1ccc(OC)c(-c2nc3ccc(OC)cc3s2)c1 [Compound 24, 2-(2,5-Dimethoxyphenyl)-6-methoxybenzo[d]thiazole] |
|  | 22.94 ± 0.02 | 22.9 |  |  | COc1ccc(-c2nc3ccc(I)cc3s2)cc1OC [Compound 38, 2-(3,4-Dimethoxyphenyl)-6-iodobenzo[d]thiazole] |
|  | 4.52 ± 0.04 |  |  |  | COc1ccc(-c2nc3ccc(C(F)(F)F)cc3s2)c(OC)c1 [Compound 18, 2-(2,4-Dimethoxyphenyl)-6-(trifluoromethyl)benzo[d]thiazole] |
|  | 5.93 ± 0.05 | 5.93 |  |  | COc1ccc(-c2nc3ccc(F)cc3s2)cc1OC [Compound 37, 2-(3,4-Dimethoxyphenyl)-6-fluorobenzo[d]thiazole] |
